Results taken from patent publication US20090023810A1, “METHODS OF TRANSLATION AND/OR INFLAMMATION BLOCKADE” (priority 2007, published 2009).

Columns and labels:
PPARγ = target: T1, PPARγ (Homo sapiens, UniProt P37231); test: PPARγ reporter (PPRE) luciferase assay in 293T cells; format: cell-based; conditions: 1 μM 24 hours before 10 μM rosiglitazone or troglitazone 12 hours, FIG. 3D
T1 construct: 293T cells that were transfected with a plasmid (1 μg) expressing a PPARγ reporter gene; endogenous in cells; host or cells: 293T
T1 sequence (P37231 1-505): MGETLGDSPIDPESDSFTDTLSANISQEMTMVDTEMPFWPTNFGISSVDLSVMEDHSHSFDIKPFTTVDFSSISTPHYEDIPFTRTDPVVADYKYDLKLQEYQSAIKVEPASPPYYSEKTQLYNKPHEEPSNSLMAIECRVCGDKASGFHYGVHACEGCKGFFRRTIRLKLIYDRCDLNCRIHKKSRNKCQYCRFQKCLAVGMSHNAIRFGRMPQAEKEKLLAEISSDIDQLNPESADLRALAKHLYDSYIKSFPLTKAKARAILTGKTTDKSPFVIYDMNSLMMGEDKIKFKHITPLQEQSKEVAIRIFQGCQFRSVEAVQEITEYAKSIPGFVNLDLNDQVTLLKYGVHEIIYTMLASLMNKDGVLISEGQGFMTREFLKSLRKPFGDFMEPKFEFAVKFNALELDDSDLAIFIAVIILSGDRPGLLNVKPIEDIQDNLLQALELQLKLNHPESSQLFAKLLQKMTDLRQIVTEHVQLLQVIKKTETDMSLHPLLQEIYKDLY
Protocol: Luciferase assays were performed as described elsewhere (Kim et al., 2005, which is hereby incorporated by reference for all purposes as if fully set forth herein).
293T cells that were transfected with a plasmid (1 μg) expressing a PPARγ reporter gene. After transfection, cells were pretreated or not pretreated with 1 μM of GW9662 for 24 hours, before being treated with 10 μM of rosiglitazone (Rosi) or troglitazone (Tro) for 12 hours. The obtained relative luciferase activities in the cell extracts normalized to a mock-treated control extract are shown in FIG. 3D.

HeLa cells = test: Stress granule (SG) formation in HeLa cells, immunocytochemistry; format: cell-based; conditions: pretreated with 1 μM for 24 hours, then 50 μM prostaglandin 1 hour, FIG. 3C
eIF4A = target: T2, eIF4A (Homo sapiens, UniProt P60842); conditions: cited from earlier work
T2 construct: His; gift of Dr. Nadejda Korneeva, Louisiana State University
T2 sequence (P60842 whole entry): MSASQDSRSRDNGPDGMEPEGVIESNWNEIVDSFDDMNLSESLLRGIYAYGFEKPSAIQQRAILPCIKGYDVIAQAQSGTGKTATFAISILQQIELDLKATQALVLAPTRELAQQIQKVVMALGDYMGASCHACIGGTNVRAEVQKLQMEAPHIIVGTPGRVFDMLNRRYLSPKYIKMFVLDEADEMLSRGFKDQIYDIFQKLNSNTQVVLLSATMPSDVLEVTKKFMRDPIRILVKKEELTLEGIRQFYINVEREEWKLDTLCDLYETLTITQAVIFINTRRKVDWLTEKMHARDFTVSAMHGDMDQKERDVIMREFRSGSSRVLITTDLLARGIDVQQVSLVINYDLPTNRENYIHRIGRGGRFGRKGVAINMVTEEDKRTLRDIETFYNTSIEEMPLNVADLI

PPARγ-mediated PPRE activation (PPARγ) | Structure (SMILES) | Effect of pretreatment on SG formation induced by 15d-PGJ2 and PGA1 (HeLa cells) | SG formation (eIF4A; Dang et al., 2006) | Translation (eIF4A; Low et al., 2005)
completely blocked | O=C(Nc1ccccc1)c1cc([N+](=O)[O-])ccc1Cl [GW9662] | had no effect on SG formation induced by 15d-PGJ2 and PGA1 | – | –
– | CC(/C=C/C(C)=C/[C@@H]1Cc2nc(cs2)[C@@H](C)C[C@@H](N)CC(=O)O[C@@H](C)C/C(C)=C/C=C\C(=O)O1)=C\CN(C)C [PatA, pateamine A] | – | induces formation of SGs independently of eIF2F phosphorylation | could block translation by inactivating eIF4A
